Experimental data as given in PubChem BioAssay AID2060607 (Molecular Pharmacology Branch, DTP, NCI, 2025).

System: 876862-298-R-J1-PDC complex spheroids, viability % test/control
Test: Anticancer human tumor 876862-298-R-J1-PDC patient-derived endometrial carcinoma cell line growth inhibition [CLK]
Conditions: for IC50: curve of first compound; for viability, T/C: stronger effect = lower value
Method in brief: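 Multi-cell-type spheroids combined patient-derived tumor cells with HUVEC endothelial cells and human mesenchymal stem cells. Paired agents were dosed in half-log steps down from about clinical Cmax, or from 10 microM where Cmax was unknown.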

[1] = second compound 0.0316 µM, first compound 0.0316 µM
[2] = second compound 0.0316 µM, first compound 0.1 µM
[3] = second compound 0.0316 µM, first compound 0.316 µM
[4] = second compound 0.0316 µM, first compound 1 µM
[5] = second compound 0.0316 µM, first compound 3.16 µM
[6] = second compound 0.0316 µM, first compound 10 µM
[7] = second compound 0.1 µM, first compound 0.0316 µM
[8] = second compound 0.1 µM, first compound 0.1 µM
[9] = second compound 0.1 µM, first compound 0.316 µM
[10] = second compound 0.1 µM, first compound 1 µM
[11] = second compound 0.1 µM, first compound 3.16 µM
[12] = second compound 0.1 µM, first compound 10 µM
[13] = second compound 0.316 µM, first compound 0.0316 µM
[14] = second compound 0.316 µM, first compound 0.1 µM
[15] = second compound 0.316 µM, first compound 0.316 µM
[16] = second compound 0.316 µM, first compound 1 µM
[17] = second compound 0.316 µM, first compound 3.16 µM
[18] = second compound 0.316 µM, first compound 10 µM
[19] = second compound 1 µM, first compound 0.0316 µM
[20] = second compound 1 µM, first compound 0.1 µM
[21] = second compound 1 µM, first compound 0.316 µM
[22] = second compound 1 µM, first compound 1 µM
[23] = second compound 1 µM, first compound 3.16 µM
[24] = second compound 1 µM, first compound 10 µM
[25] = second compound 3.16 µM, first compound 0.0316 µM
[26] = second compound 3.16 µM, first compound 0.1 µM
[27] = second compound 3.16 µM, first compound 0.316 µM
[28] = second compound 3.16 µM, first compound 1 µM
[29] = second compound 3.16 µM, first compound 3.16 µM
[30] = second compound 3.16 µM, first compound 10 µM
[31] = second compound 10 µM, first compound 0.0316 µM
[32] = second compound 10 µM, first compound 0.1 µM
[33] = second compound 10 µM, first compound 0.316 µM
[34] = second compound 10 µM, first compound 1 µM
[35] = second compound 10 µM, first compound 3.16 µM
[36] = second compound 10 µM, first compound 10 µM
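Also: spheroids exposed to drugs for 7 days before readout.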
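For viability, T/C in this document: 100% = DMSO vehicle control wells.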

Compound: COc1ccc([C@@H](O)c2cc(-c3ncnc4cc(N5CCOCC5)ccc34)c(F)cc2Cl)nn1 + CN1CCN(c2cc(C(=O)Nc3cc4cc(-c5cnn(C)c5)ccc4cn3)ccn2)CC1
- IC50 (second compound 0.0316 µM): 4950 nM
- IC50 (second compound 0.1 µM): < 31.6 nM
- IC50 (second compound 0.316 µM): < 31.6 nM
- IC50 (second compound 1 µM): < 31.6 nM
- IC50 (second compound 3.16 µM): < 31.6 nM
- IC50 (second compound 10 µM): < 31.6 nM
- viability, T/C [1]: 93.3%
- viability, T/C [2]: 90%
- viability, T/C [3]: 86%
- viability, T/C [4]: 84.2%
- viability, T/C [5]: 59.2%
- viability, T/C [6]: 35%
- viability, T/C [7]: 46.2%
- viability, T/C [8]: 43.4%
- viability, T/C [9]: 47%
- viability, T/C [10]: 42.8%
- viability, T/C [11]: 31.5%
- viability, T/C [12]: 21.1%
- viability, T/C [13]: 2.02%
- viability, T/C [14]: 2.01%
- viability, T/C [15]: 3%
- viability, T/C [16]: 2.2%
- viability, T/C [17]: 1.56%
- viability, T/C [18]: 2.98%
- viability, T/C [19]: 0.64%
- viability, T/C [20]: 0.77%
- viability, T/C [21]: 0.64%
- viability, T/C [22]: 0.69%
- viability, T/C [23]: 0.55%
- viability, T/C [24]: 2.27%
- viability, T/C [25]: 1.08%
- viability, T/C [26]: 2.43%
- viability, T/C [27]: 1.6%
- viability, T/C [28]: 1%
- viability, T/C [29]: 2.06%
- viability, T/C [30]: 1.3%
- viability, T/C [31]: 0.75%
- viability, T/C [32]: 0.99%
- viability, T/C [33]: 1.44%
- viability, T/C [34]: 1.58%
- viability, T/C [35]: 1.58%
- viability, T/C [36]: 1.69%

Compound: C=CC(=O)N1CCN(c2nc(=O)n(-c3c(C)ccnc3C(C)C)c3nc(-c4c(O)cccc4F)c(F)cc23)C(C)C1 (stereo not drawn) + CNC(=O)c1ccc(Nc2nc(OC3CCCC3)c3c(-c4ccc5nc(C)oc5c4)c[nH]c3n2)c(OC)c1
- IC50 (second compound 0.0316 µM): > 10000 nM
- IC50 (second compound 0.1 µM): 322 nM
- IC50 (second compound 0.316 µM): < 31.6 nM
- IC50 (second compound 1 µM): < 31.6 nM
- IC50 (second compound 3.16 µM): < 31.6 nM
- IC50 (second compound 10 µM): < 31.6 nM
- viability, T/C [1]: 70.2%
- viability, T/C [2]: 84.2%
- viability, T/C [3]: 69%
- viability, T/C [4]: 90.2%
- viability, T/C [5]: 80.9%
- viability, T/C [6]: 60.5%
- viability, T/C [7]: 52.4%
- viability, T/C [8]: 54.5%
- viability, T/C [9]: 46%
- viability, T/C [10]: 46.9%
- viability, T/C [11]: 50.2%
- viability, T/C [12]: 41%
- viability, T/C [13]: 42.7%
- viability, T/C [14]: 43.5%
- viability, T/C [15]: 42.2%
- viability, T/C [16]: 39.6%
- viability, T/C [17]: 46.1%
- viability, T/C [18]: 35.2%
- viability, T/C [19]: 32.4%
- viability, T/C [20]: 29.6%
- viability, T/C [21]: 30.1%
- viability, T/C [22]: 29.3%
- viability, T/C [23]: 29.3%
- viability, T/C [24]: 23.3%
- viability, T/C [25]: 24%
- viability, T/C [26]: 25.2%
- viability, T/C [27]: 23.1%
- viability, T/C [28]: 21.6%
- viability, T/C [29]: 23.5%
- viability, T/C [30]: 13.6%
- viability, T/C [31]: 24.6%
- viability, T/C [32]: 19.5%
- viability, T/C [33]: 19.1%
- viability, T/C [34]: 22.7%
- viability, T/C [35]: 20.1%
- viability, T/C [36]: 10.2%

Compound: CCCS(=O)(=O)Nc1ccc(F)c(C(=O)c2c[nH]c3ncc(-c4ccc(Cl)cc4)cc23)c1F + CNC(=O)c1ccc(Nc2nc(OC3CCCC3)c3c(-c4ccc5nc(C)oc5c4)c[nH]c3n2)c(OC)c1
- IC50 (second compound 0.0316 µM): 7040 nM
- IC50 (second compound 0.1 µM): < 31.6 nM
- IC50 (second compound 0.316 µM): < 31.6 nM
- IC50 (second compound 1 µM): < 31.6 nM
- IC50 (second compound 3.16 µM): < 31.6 nM
- IC50 (second compound 10 µM): < 31.6 nM
- viability, T/C [1]: 72.1%
- viability, T/C [2]: 89.1%
- viability, T/C [3]: 88.1%
- viability, T/C [4]: 90.9%
- viability, T/C [5]: 68.2%
- viability, T/C [6]: 42%
- viability, T/C [7]: 40.2%
- viability, T/C [8]: 54.9%
- viability, T/C [9]: 50.5%
- viability, T/C [10]: 49.2%
- viability, T/C [11]: 40.4%
- viability, T/C [12]: 26.6%
- viability, T/C [13]: 45.6%
- viability, T/C [14]: 41.2%
- viability, T/C [15]: 43.8%
- viability, T/C [16]: 40.1%
- viability, T/C [17]: 31.7%
- viability, T/C [18]: 18.1%
- viability, T/C [19]: 36.9%
- viability, T/C [20]: 32%
- viability, T/C [21]: 30.7%
- viability, T/C [22]: 32.7%
- viability, T/C [23]: 22.4%
- viability, T/C [24]: 12.7%
- viability, T/C [25]: 23.5%
- viability, T/C [26]: 25.1%
- viability, T/C [27]: 21.2%
- viability, T/C [28]: 26.1%
- viability, T/C [29]: 19.1%
- viability, T/C [30]: 10.8%
- viability, T/C [31]: 23.1%
- viability, T/C [32]: 21.4%
- viability, T/C [33]: 21%
- viability, T/C [34]: 22.3%
- viability, T/C [35]: 15.9%
- viability, T/C [36]: 10.4%

Compound: COC1C=CCC(C)C(C)S(=O)(=O)NC(=O)c2ccc3c(c2)N(CC2CCC21)CC1(CCCc2cc(Cl)ccc21)CO3 (stereo not drawn) + CNC(=O)c1ccc(Nc2nc(OC3CCCC3)c3c(-c4ccc5nc(C)oc5c4)c[nH]c3n2)c(OC)c1
- IC50 (second compound 0.0316 µM): 6470 nM
- IC50 (second compound 0.1 µM): < 31.6 nM
- IC50 (second compound 0.316 µM): < 31.6 nM
- IC50 (second compound 1 µM): < 31.6 nM
- IC50 (second compound 3.16 µM): < 31.6 nM
- IC50 (second compound 10 µM): < 31.6 nM
- viability, T/C [1]: 72%
- viability, T/C [2]: 92.5%
- viability, T/C [3]: 66.1%
- viability, T/C [4]: 104%
- viability, T/C [5]: 86.2%
- viability, T/C [6]: 29.1%
- viability, T/C [7]: 46.2%
- viability, T/C [8]: 45.4%
- viability, T/C [9]: 37.3%
- viability, T/C [10]: 32.2%
- viability, T/C [11]: 30.3%
- viability, T/C [12]: 21.5%
- viability, T/C [13]: 40.3%
- viability, T/C [14]: 33.6%
- viability, T/C [15]: 29.8%
- viability, T/C [16]: 24.8%
- viability, T/C [17]: 20.5%
- viability, T/C [18]: 19.1%
- viability, T/C [19]: 31.9%
- viability, T/C [20]: 25.8%
- viability, T/C [21]: 20.6%
- viability, T/C [22]: 17.6%
- viability, T/C [23]: 13.8%
- viability, T/C [24]: 13.5%
- viability, T/C [25]: 26.1%
- viability, T/C [26]: 20.3%
- viability, T/C [27]: 15.6%
- viability, T/C [28]: 12%
- viability, T/C [29]: 9.4%
- viability, T/C [30]: 7.9%
- viability, T/C [31]: 22.6%
- viability, T/C [32]: 19%
- viability, T/C [33]: 12.3%
- viability, T/C [34]: 12.3%
- viability, T/C [35]: 9.91%
- viability, T/C [36]: 5.3%
